Values joined by “and” are separate entries in the source; they are usually repeats but may differ in a detail not shown here. Equal entries are not always repeated. Structures can show the parent of a compound that is named as a salt.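 Following 48 hours of exposure in 96-well plates, responses at five concentrations were used to interpolate endpoints linearly. GI50 is the concentration that inhibits growth by half.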 Active and inactive are the calls of the source. No stated cut-off is given here; in the data, active = GI50 up to about 1.1 µM and inactive = higher.
What was measured:
Experiment in all cases: NCI anticancer screen, dose series, 48 h
[1] = tested on: 786-0
[2] = tested on: A549
[3] = tested on: ACHN
[4] = tested on: COLO 205
[5] = tested on: EKVX
[6] = tested on: HCT-116
[7] = tested on: HOP-62
[8] = tested on: HT-29
[9] = tested on: KM12
[10] = tested on: MDA-MB-435
[11] = tested on: NCI-H226
[12] = tested on: NCI-H522
[13] = tested on: NCI/ADR-RES
[14] = tested on: OVCAR-4
[15] = tested on: OVCAR-5
[16] = tested on: RPMI-8226
[17] = tested on: RXF 393
[18] = tested on: SR
[19] = tested on: UACC-62
[20] = tested on: LOX IMVI

Compound | GI50 [1] | GI50 [2] | GI50 [3] | GI50 [4] | GI50 [5] | GI50 [6] | GI50 [7] | GI50 [8] | GI50 [9] | GI50 [10] | GI50 [11] | GI50 [12] | GI50 [13] | GI50 [14] | GI50 [15] | GI50 [16] | GI50 [17] | GI50 [18] | GI50 [19] | GI50 [20]
COC(=O)C(I(OS(=O)(=O)c1ccc(C)cc1)c1ccccc1)=P(c1ccccc1)(c1ccccc1)c1ccccc1 | 12.4 µM (inactive) | 24.5 µM (inactive) | 16.6 µM (inactive) | 3.13 µM (inactive) | 23.7 µM (inactive) | 16.3 µM (inactive) | 19.3 µM (inactive) | 20.6 µM (inactive) | 19.5 µM (inactive) | 18 µM (inactive) | 8.39 µM (inactive) | 13 µM (inactive) | 64 µM (inactive) | 13.7 µM (inactive) | 28.6 µM (inactive) | 5.04 µM (inactive) | 20.5 µM (inactive) | 19.4 µM (inactive) | 18.7 µM (inactive) | 
COc1ccc(C(=O)/C=C2\c3ccccc3C(=O)N2C)cc1 | 92.3 µM (inactive) | 58.6 µM (inactive) | 89.5 µM (inactive) | 55 µM (inactive) | 26.8 µM (inactive) | 59.3 µM (inactive) | 60.4 µM (inactive) | 35.6 µM (inactive) | 62.8 µM (inactive) | 36.9 µM (inactive) |  | 31.9 µM (inactive) | 38 µM (inactive) | 42.6 µM (inactive) | > 100 µM (inactive) | 41.5 µM (inactive) | 22.9 µM (inactive) | 33.5 µM (inactive) | 41.1 µM (inactive) | 46.8 µM (inactive)
N#Cc1[nH]c(=O)n(-c2ccccc2)c1N | > 10 µM (inactive) | > 10 µM (inactive) | > 10 µM (inactive) | > 10 µM (inactive) | > 10 µM (inactive) | > 10 µM (inactive) | > 10 µM (inactive) | > 10 µM (inactive) | > 10 µM (inactive) | > 10 µM (inactive) | > 10 µM (inactive) |  | > 10 µM (inactive) | > 10 µM (inactive) | 0.141 µM (active) | > 10 µM (inactive) | > 10 µM (inactive) | > 10 µM (inactive) | > 10 µM (inactive) | 0.0995 µM (active)
CCS(=O)(=O)CCn1c(=O)c2c(ncn2C)n(C)c1=O | > 100 µM (inactive) | > 100 µM (inactive) | > 100 µM (inactive) | > 100 µM (inactive) | > 100 µM (inactive) | > 100 µM (inactive) | > 100 µM (inactive) | > 100 µM (inactive) | > 100 µM (inactive) | > 100 µM (inactive) |  | > 100 µM (inactive) | > 100 µM (inactive) | > 100 µM (inactive) | > 100 µM (inactive) | > 100 µM (inactive) | > 100 µM (inactive) | > 100 µM (inactive) | > 100 µM (inactive) | > 100 µM (inactive)
CN1CN(c2ccccc2)C2(CCN(C3Nc4ccccc4O3)CC2)C1=O (stereo unspecified) | 20.6 µM (inactive) | 27.3 µM (inactive) | 22 µM (inactive) | 16.3 µM (inactive) |  | 16.2 µM (inactive) | 17 µM (inactive) | 17.9 µM (inactive) | 19.6 µM (inactive) | 19 µM (inactive) | 18.6 µM (inactive) | 17.5 µM (inactive) | 20.8 µM (inactive) |  | 17.6 µM (inactive) | 11.7 µM (inactive) | 14.5 µM (inactive) | 36.9 µM (inactive) | 16.1 µM (inactive) | 13.6 µM (inactive)
C/C(=C\CBr)CCC(Br)C(C)(C)Br (stereo unspecified) | > 100 µM (inactive) | > 100 µM (inactive) | > 100 µM (inactive) | > 100 µM (inactive) | > 100 µM (inactive) | > 100 µM (inactive) | > 100 µM (inactive) | > 100 µM (inactive) | > 100 µM (inactive) | > 100 µM (inactive) | > 100 µM (inactive) | > 100 µM (inactive) | > 100 µM (inactive) | > 100 µM (inactive) | > 100 µM (inactive) | > 100 µM (inactive) | > 100 µM (inactive) | > 100 µM (inactive) | > 100 µM (inactive) | 
c1ccc2c(c1)Sc1ccccc1N2CCCN1c2ccccc2Sc2ccccc21 | 20.2 µM (inactive) | > 100 µM (inactive) | 39.1 µM (inactive) | 52.6 µM (inactive) | > 100 µM (inactive) | 55.5 µM (inactive) | 95.1 µM (inactive) | > 100 µM (inactive) | > 100 µM (inactive) | 58.9 µM (inactive) | > 100 µM (inactive) | > 100 µM (inactive) | 69.8 µM (inactive) | 36.1 µM (inactive) | > 100 µM (inactive) |  | 78.5 µM (inactive) | > 100 µM (inactive) | > 100 µM (inactive) | > 100 µM (inactive)
CC(=O)c1c(O)nnc(-c2ccc(Cl)cc2)c1-c1ccc(Cl)cc1 | 83.6 µM (inactive) | 29.9 µM (inactive) | 22 µM (inactive) | 29.2 µM (inactive) | 53.3 µM (inactive) | 58.2 µM (inactive) |  | 40.5 µM (inactive) | 35.2 µM (inactive) | 29.9 µM (inactive) | 31.3 µM (inactive) |  | 30.1 µM (inactive) | 21.1 µM (inactive) | > 100 µM (inactive) | 23.2 µM (inactive) | 38.9 µM (inactive) | 27.9 µM (inactive) | 12.4 µM (inactive) | 21.7 µM (inactive)
CC1(C)N=C(N)N=C(N)N1c1cccc(Cl)c1 | 0.585 µM (active) | 2.41 µM (inactive) | 5.21 µM (inactive) | 5.35 µM (inactive) | > 100 µM (inactive) | 0.461 µM (active) | 4.85 µM (inactive) | 0.785 µM (active) | 7.98 µM (inactive) | 0.604 µM (active) |  | 5.87 µM (inactive) | 0.681 µM (active) | > 100 µM (inactive) | 9.12 µM (inactive) |  | > 100 µM (inactive) | 1.73 µM (inactive) | 2.88 µM (inactive) | 2.54 µM (inactive)
COc1cc(-c2c(C(C)=O)c(-c3ccccc3)n(C3OC(COC(C)=O)C(OC(C)=O)C(OC(C)=O)C3OC(C)=O)c(=S)c2C#N)ccc1O (stereo unspecified) | > 100 µM (inactive) | > 100 µM (inactive) and 88.7 µM (inactive) | 55.3 µM (inactive) | 97.1 µM (inactive) | 57.4 µM (inactive) | 70.8 µM (inactive) | > 100 µM (inactive) | 76.6 µM (inactive) and 76.9 µM (inactive) | 71.6 µM (inactive) and 89.5 µM (inactive) | 57.1 µM (inactive) and 35.4 µM (inactive) |  |  | > 100 µM (inactive) | > 100 µM (inactive) | > 100 µM (inactive) |  | > 100 µM (inactive) and 78.5 µM (inactive) | > 100 µM (inactive) | 59.2 µM (inactive) | > 100 µM (inactive) and 66.5 µM (inactive)
COc1ccc(Cc2nccc3cc(OC)c(OC)cc23)cc1OC [PAPAVERINE HYDROCHLORIDE] | > 100 µM (inactive) | > 100 µM (inactive) | 63 µM (inactive) | > 100 µM (inactive) | 45.5 µM (inactive) | 39.3 µM (inactive) | 43.8 µM (inactive) | 41.3 µM (inactive) | > 100 µM (inactive) | > 100 µM (inactive) | 43.5 µM (inactive) | > 100 µM (inactive) | 26.7 µM (inactive) | > 100 µM (inactive) | > 100 µM (inactive) | 36.7 µM (inactive) |  | 19.2 µM (inactive) | > 100 µM (inactive) | 60.8 µM (inactive)
CCc1n[nH]c(=O)n1/N=C/c1ccccc1O | > 100 µM (inactive) | > 100 µM (inactive) | > 100 µM (inactive) | > 100 µM (inactive) | > 100 µM (inactive) | > 100 µM (inactive) | > 100 µM (inactive) |  | > 100 µM (inactive) | > 100 µM (inactive) |  | > 100 µM (inactive) | > 100 µM (inactive) | > 100 µM (inactive) | > 100 µM (inactive) | > 100 µM (inactive) | > 100 µM (inactive) | > 100 µM (inactive) | > 100 µM (inactive) | > 100 µM (inactive)
CC(=O)Nc1oc(C)c(C)c1S(=O)(=O)c1ccc(Cl)cc1 | 98.9 µM (inactive) | 52 µM (inactive) | 46.2 µM (inactive) | 72.8 µM (inactive) | 39.4 µM (inactive) | 55 µM (inactive) |  | 49 µM (inactive) | 39.4 µM (inactive) | 33.5 µM (inactive) | 34.4 µM (inactive) | 37.7 µM (inactive) | 36 µM (inactive) | 39.1 µM (inactive) | > 100 µM (inactive) | 35.6 µM (inactive) | 69.7 µM (inactive) | 51.5 µM (inactive) | 42 µM (inactive) | 
CCOC(OCC)C(CCc1ccccc1)c1c(N)nc(N)[nH]c1=O (stereo unspecified) | 89.7 µM (inactive) | 54.1 µM (inactive) |  | 17.4 µM (inactive) | 3.76 µM (inactive) | 65.3 µM (inactive) | > 100 µM (inactive) | 55.1 µM (inactive) | 66.4 µM (inactive) | 32.4 µM (inactive) | 41.2 µM (inactive) |  | > 100 µM (inactive) | 46.1 µM (inactive) | 13.5 µM (inactive) | 38.6 µM (inactive) | 57.7 µM (inactive) | 32.4 µM (inactive) | 46.1 µM (inactive) | 64.3 µM (inactive)
CCOC(=O)/C=C/C(=O)O/C=C/[N+](=O)[O-] | > 100 µM (inactive) |  | > 100 µM (inactive) | > 100 µM (inactive) | > 100 µM (inactive) | > 100 µM (inactive) | > 100 µM (inactive) | > 100 µM (inactive) | > 100 µM (inactive) | > 100 µM (inactive) | > 100 µM (inactive) | > 100 µM (inactive) | > 100 µM (inactive) |  | > 100 µM (inactive) | > 100 µM (inactive) | > 100 µM (inactive) | > 100 µM (inactive) | > 100 µM (inactive) | > 100 µM (inactive)

Reference: ChEMBL document CHEMBL1201862, “PubChem BioAssay data set” (2004)
